Measured values as given in patent US12274710B2, “Compound for regulating body weight imbalance, composition thereof and application thereof” (GUANGZHOU CENTURY CLINICAL RESEARCH CO., LTD, priority 2019, dated 2025).
Read-outs that look alike come from different tables or passages of the source.

How the values were obtained:
rats in obese model = assay: Effect on BMI of rats in obese model (formula feed); type: in vivo, SD rats; conditions: for BMI / BMI of animals compared with the model group (in words): 4 weeks; for BMI: model group 7.73 ± 0.27
Source text: Except the blank group and the model group, each group had three subgroups: low dose, middle dose, and high dose. There were 6 animals in each subgroup.
The animals in the blank group were fed with a common feed every day. The animals in each group except the blank group were fed with a formula feed every day. The formula feed contained 5% of cholesterol, 6% of sucrose, 20% of egg yolk, 6% of peanut butter, 12% of whole milk powder, 6% of sesame oil (the percentage was by mass) and other ingredients of the common feed.
Each test drug was mixed with 5% methylcellulose solution; the animals in each group except the blank group and the model group were administered intragastrically respectively with a low dose of 100 mg/kg, a middle dose of 400 mg/kg and a high dose of 1,600 mg/kg; the animals in the blank group and the model group were not administered with the test drug and they were administered intragastrically with the same amount of 5% methylcellulose solution respectively. The intragastric administration was conducted once a day continuously for 4 weeks.
During the test process, the animals in each group were able to eat normally without anorexia. The stool characteristics were normal and no obvious diarrhea occurred.
After the last drug administration, the animals in each group were fasted for 12 h, during which water was provided, and then the animals were weighed.
Body length (distance from the nose to the anus) was measured after the animals were anesthetized with sodium pentobarbital and body mass index (BMI) (BMI=weight (kg)÷(height (m))^2) was calculated.
Statistical analysis was conducted by using the data in each group and the main results were screened and shown in Table 3 (Note: some test drugs in the table only list the middle-dose subgroups).

[1] = for Rate of weight change: after treatment vs before, 4 weeks
Source text: (§1) The dosage was based on a standard dosage of 3 g per day and should be increased or decreased according to individual conditions of the patients.
Weight changes of patients before and after treatment were also investigated: Rate of weight change=(weight after treatment−weight before treatment)÷weight before treatment×100%.

[2] = test system: patients diagnosed with gastric ulcer or duodenal ulcer; conditions: 4 weeks
Source text: (§2) Efficacy and safety of the compound of the present disclosure in treating ulcers were studied in patients suffering from gastric ulcer or duodenal ulcer.
as §1
The number of ulcer foci and the area of ulcer foci (mm^2) of each patient were checked before and after the treatment, and the efficacy after treatment was judged according to the following criteria:
Completely healed: after the treatment, the ulcers and surrounding inflammation all disappeared after an endoscopic examination;
Basically healed: after the treatment, the ulcers disappeared in an endoscopic examination, but there was still inflammation; and partially healed: after the treatment, the area of the ulcers was reduced by 50% or more in an endoscopic examination; and
Unhealed: after the treatment, the area of the ulcers was reduced by less than 50% in an endoscopic examination.
The healing rate was used as an indicator of efficacy. Healing rate=(number of completely healed patients+number of basically healed patients)÷total number of patients in this group×100%.

[3] = test system: patients diagnosed with gastric ulcer or duodenal ulcer; assay: Routine examination indicators and digestive function before and after drug treatment (safety); type: in vivo, human; conditions: after treatment, 4 weeks
Source text: as §2, §1
The number of red blood cells, the number of white blood cells, ALT, AST, serum creatinine, urine protein and other laboratory test items were checked before and after treatment. Routine clinical diagnostic criterias were used to determine whether the test items were normal and the normal rate was calculated. Normal rate of test indicators=number of patients with normal test indicators÷total number of patients in this group×100%
Effects of the drug on normal digestive function of the patients were also investigated before and after treatment by determining the rate of loose stool and the rate of constipation: Rate of loose stool=number of patients with loose stool÷total number of patients in this group×100%; and Rate of constipation=number of patients with constipation÷total number of patients in this group×100%.

[4] = test system: persons suffering from weight imbalance
[5] = middle dose 400 mg/kg intragastrically once a day

Compound: COc1ccc(-c2cc(=O)c3c(O)cc(O[C@@H]4O[C@H](CO[C@@H]5O[C@@H](C)[C@H](O)[C@@H](O)[C@H]5O)[C@@H](O)[C@H](O)[C@H]4O)cc3o2)cc1O [diosmin, reference compound]
- BMI (rats in obese model; [5]): 7.60 ± 0.39 kg/m^2
- BMI of animals compared with the model group (in words) (rats in obese model; obese model rats): no significant difference

Compound: dosmalfate [compound 3]
- BMI (rats in obese model; high dose 1,600 mg/kg intragastrically once a day): 5.85 ± 0.23 kg/m^2
- BMI (rats in obese model; low dose 100 mg/kg intragastrically once a day): 6.72 ± 0.32 kg/m^2
- BMI (rats in obese model; [5]): 6.06 ± 0.29 kg/m^2
- BMI of animals compared with the model group (in words) (rats in obese model; obese model rats): significantly reduced
- Relative effectiveness on BMI at the same dose (in words) (rats in obese model; obese model rats, same dose): more effective than compound 1 and compound 2
- Rate of weight change ([1]; Group 0.5 g): −4.2%
- Rate of weight change ([1]; Group 1 g): −5.3%
- Rate of weight change ([1]; Group 3 g): −7.0%
- Rate of weight change ([1]; Group 9 g): −7.1%
- Rate of weight change ([1]; Group 18 g): −3.8%
- Effect on weight of ulcer patients (in words) ([1]; each dosage group, after 4 weeks of administration): weight loss to varing degrees
- Healing rate of ulcers ([2]; Group 0.5 g/day, 10 patients): 30.0%
- Healing rate of ulcers ([2]; Group 1 g/day, 18 patients): 55.6%
- Healing rate of ulcers ([2]; Group 3 g/day, 37 patients): 62.2%
- Healing rate of ulcers ([2]; Group 9 g/day, 10 patients): 80.0%
- Healing rate of ulcers ([2]; Group 18 g/day, 5 patients): 80.0%
- Normal rate of ALT ([3]; Group 0.5 g): 90.0%
- Normal rate of AST ([3]; Group 0.5 g): 100.0%
- Normal rate of red blood cells ([3]; Group 0.5 g): 100.0%
- Normal rate of serum creatinine ([3]; Group 0.5 g): 100.0%
- Normal rate of urine protein ([3]; Group 0.5 g): 100.0%
- Normal rate of white blood cells ([3]; Group 0.5 g): 100.0%
- Rate of constipation ([3]; Group 0.5 g): 0.0%
- Rate of loose stool ([3]; Group 0.5 g): 0.0%
- Normal rate of ALT ([3]; Group 1 g): 94.4%
- Normal rate of AST ([3]; Group 1 g): 100.0%
- Normal rate of red blood cells ([3]; Group 1 g): 94.4%
- Normal rate of serum creatinine ([3]; Group 1 g): 100.0%
- Normal rate of urine protein ([3]; Group 1 g): 94.4%
- Normal rate of white blood cells ([3]; Group 1 g): 100.0%
- Rate of constipation ([3]; Group 1 g): 0.0%
- Rate of loose stool ([3]; Group 1 g): 0.0%
- Normal rate of ALT ([3]; Group 3 g): 91.9%
- Normal rate of AST ([3]; Group 3 g): 94.6%
- Normal rate of red blood cells ([3]; Group 3 g): 94.6%
- Normal rate of serum creatinine ([3]; Group 3 g): 94.6%
- Normal rate of urine protein ([3]; Group 3 g): 94.6%
- Normal rate of white blood cells ([3]; Group 3 g): 91.9%
- Rate of constipation ([3]; Group 3 g): 2.7%
- Rate of loose stool ([3]; Group 3 g): 0.0%
- Normal rate of ALT ([3]; Group 9 g): 90.0%
- Normal rate of AST ([3]; Group 9 g): 90.0%
- Normal rate of red blood cells ([3]; Group 9 g): 90.0%
- Normal rate of serum creatinine ([3]; Group 9 g): 100.0%
- Normal rate of urine protein ([3]; Group 9 g): 100.0%
- Normal rate of white blood cells ([3]; Group 9 g): 100.0%
- Rate of constipation ([3]; Group 9 g): 0.0%
- Rate of loose stool ([3]; Group 9 g): 0.0%
- Normal rate of ALT ([3]; Group 18 g): 100.0%
- Normal rate of AST ([3]; Group 18 g): 100.0%
- Normal rate of red blood cells ([3]; Group 18 g): 80.0%
- Normal rate of serum creatinine ([3]; Group 18 g): 100.0%
- Normal rate of urine protein ([3]; Group 18 g): 100.0%
- Normal rate of white blood cells ([3]; Group 18 g): 80.0%
- Rate of constipation ([3]; Group 18 g): 0.0%
- Rate of loose stool ([3]; Group 18 g): 0.0%
- Uric acid level after administration ([4]; A person, 680 μmol/L before, 3 g three times a day, two months, no uric acid-lowering drug): 600 µmol/L
- BMI index after administration ([4]; A person, BMI 29 before, 1.5 g three times a day, three months): 25.7
- BMI index after administration ([4]; A person, BMI 32 before, 3 g three times a day, two months): 28.2
- BMI index after administration ([4]; Person, BMI 25 before, 1 g twice a day, two months): 22
- Body weight after administration ([4]; Person, obesity and hyperuricemia, 85 kg before, 3 g three times a day, two months): 75 kg
- Body weight after administration ([4]; Person, polycystic ovary syndrome, 62 kg before, 1.5 g three times a day, three months): 55 kg

Compound: sucralfate [reference compound]
- BMI (rats in obese model; [5]): 7.87 ± 0.34 kg/m^2
- BMI of animals compared with the model group (in words) (rats in obese model; obese model rats): no significant difference
